Laboratory results published in patent US20190151312A1, “HEPARAN SULFATE BIOSYNTHESIS INHIBITORS FOR THE TREATMENT OF DISEASES” (BioMarin Pharmaceutical Inc., priority 2014, published 2019).

What was measured:
[1] = system: cultured primary human fibroblast from MPS patients; conditions: cited from earlier work
[2] = system: GM01896 cells (MPS II dermal fibroblasts); assay: Assay 1: MPS cellular assay, MPS II (heparan sulfate disaccharide biomarkers by LC-MS); assay type: cell-based, human; conditions: Homo sapiens, Fibroblast, Assay 1 for MPS II, heparan sulfate disaccharide biomarkers (I2a4, I2a6, I2S0 and/or I2S6), read-out: IC50 Range
Method in brief: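 MPS II patient dermal fibroblasts (GM01896) treated with compound at ≤30 μM for 4 to 21 days. Heparan sulfate GAGs isolated by anion exchange, digested with heparinases I-III, aniline-tagged against [13C6]aniline standards and quantified by LC-MS; IC50 from curve fitting. Viability monitored by alamar blue or ATP.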

| Compound | effect on synthesis of PAPs (sulfate donor) ([1]; 30-60 mM sodium chlorate) | sulfation of heparan sulfate produced by cells ([1]; cells grown in the presence of sodium chlorate) | IC50 [2] [nM] |
| --- | --- | --- | --- |
| [Na+].[O-][Cl+2]([O-])[O-] [sodium chlorate] | inhibits the synthesis of PAPs | reduced sulfation | – |
| CNC(=O)c1ccc(Nc2cc(-c3ccc4c(cnn4C4CC4)c3)nc(N3CCOCC3)n2)cc1 [(4-{[6-(1-cyclopropyl(1H-indazol-5-yl))-2-morpholin-4-ylpyrimidin-4-yl]amino}phenyl)-N-methylcarboxamide] | – | – | 1000 to 5000 |
